Data reported in PMC7953826 (Nature cell biology, 2020).

Experiments:
[1] = biological target: T1, hDyn2 (Homo sapiens, UniProt P50570); experiment: negative-stain EM, GTP-induced helix disassembly on actin bundles; type: binding; conditions: 1 mM GTP, with actin, room temperature, 30 min
T1 sequence (P50570 1-870): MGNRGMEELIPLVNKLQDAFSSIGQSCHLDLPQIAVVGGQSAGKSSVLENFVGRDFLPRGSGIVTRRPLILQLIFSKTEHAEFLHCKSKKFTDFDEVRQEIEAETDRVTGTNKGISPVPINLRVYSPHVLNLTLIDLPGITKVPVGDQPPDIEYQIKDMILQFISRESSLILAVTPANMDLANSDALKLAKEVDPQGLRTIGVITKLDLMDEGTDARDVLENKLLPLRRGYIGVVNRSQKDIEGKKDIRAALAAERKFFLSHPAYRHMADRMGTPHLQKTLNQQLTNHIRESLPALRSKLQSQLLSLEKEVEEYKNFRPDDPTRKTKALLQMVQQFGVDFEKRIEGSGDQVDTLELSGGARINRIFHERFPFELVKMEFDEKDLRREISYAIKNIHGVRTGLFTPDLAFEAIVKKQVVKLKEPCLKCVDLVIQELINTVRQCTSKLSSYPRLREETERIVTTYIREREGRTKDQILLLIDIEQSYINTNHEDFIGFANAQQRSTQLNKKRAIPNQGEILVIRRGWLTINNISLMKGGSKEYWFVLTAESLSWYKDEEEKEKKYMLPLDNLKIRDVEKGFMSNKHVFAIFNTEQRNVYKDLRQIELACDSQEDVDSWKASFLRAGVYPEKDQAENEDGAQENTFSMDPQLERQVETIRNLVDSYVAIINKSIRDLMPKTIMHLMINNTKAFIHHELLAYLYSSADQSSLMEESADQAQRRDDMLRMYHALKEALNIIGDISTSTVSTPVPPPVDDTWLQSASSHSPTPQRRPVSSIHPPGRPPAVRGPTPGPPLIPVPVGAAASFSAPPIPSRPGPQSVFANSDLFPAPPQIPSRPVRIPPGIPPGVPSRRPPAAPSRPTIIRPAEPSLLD

[2] = biological target: T2, hDyn1 (Homo sapiens, UniProt Q05193); experiment: as above; type: binding; conditions: 1 mM GTP, with actin, room temperature, 30 min
T2 sequence (Q05193 1-864): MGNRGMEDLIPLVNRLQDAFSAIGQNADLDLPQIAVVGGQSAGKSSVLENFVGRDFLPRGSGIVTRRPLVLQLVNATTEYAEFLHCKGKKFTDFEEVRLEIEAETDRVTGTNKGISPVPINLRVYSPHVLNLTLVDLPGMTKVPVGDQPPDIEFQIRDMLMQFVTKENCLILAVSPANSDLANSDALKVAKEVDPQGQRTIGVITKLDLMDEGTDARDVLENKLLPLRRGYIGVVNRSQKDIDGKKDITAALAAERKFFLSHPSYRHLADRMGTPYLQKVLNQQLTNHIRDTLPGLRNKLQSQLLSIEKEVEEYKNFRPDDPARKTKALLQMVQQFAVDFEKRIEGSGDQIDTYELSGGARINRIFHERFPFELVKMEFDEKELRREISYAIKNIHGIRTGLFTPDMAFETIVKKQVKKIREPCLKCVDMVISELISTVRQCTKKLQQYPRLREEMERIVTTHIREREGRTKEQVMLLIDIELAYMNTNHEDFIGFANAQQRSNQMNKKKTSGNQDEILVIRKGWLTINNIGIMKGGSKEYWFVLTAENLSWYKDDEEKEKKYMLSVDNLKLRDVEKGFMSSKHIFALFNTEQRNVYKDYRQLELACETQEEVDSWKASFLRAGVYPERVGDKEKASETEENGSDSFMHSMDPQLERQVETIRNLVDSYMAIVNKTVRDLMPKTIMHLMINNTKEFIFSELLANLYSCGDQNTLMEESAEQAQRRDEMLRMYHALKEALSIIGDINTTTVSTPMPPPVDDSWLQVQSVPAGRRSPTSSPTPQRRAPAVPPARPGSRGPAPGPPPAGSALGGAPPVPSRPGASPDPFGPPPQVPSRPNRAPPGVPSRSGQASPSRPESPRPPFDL

Nc1nc2c(ncn2[C@@H]2O[C@H](COP(=O)(O)OP(=O)(O)OP(=O)(O)O)[C@@H](O)[C@H]2O)c(=O)[nH]1 [GTP]
negative-stain EM, GTP-induced helix disassembly on actin bundles [1]: hDyn1 and hDyn2 helices along actin bundles were disassembled upon GTP addition | negative-stain EM, GTP-induced helix disassembly on actin bundles [2]: hDyn1 and hDyn2 helices along actin bundles were disassembled upon GTP addition
